Some test systems named below: Hs-578T; HOP-92; T47D; MDA-MB-435; SK-MEL-5; SR; RXF 393; TK-10; ACHN; OVCAR-8; PC-3; EKVX; SF-268; SK-MEL-2; HOP-62; SNB-19; A549; SN12C; UACC-62.
What all share (assay): NCI anticancer screen, dose series, 48 h

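These data come from cells grown in 96-well plates and exposed to compound for 48 hours at five concentrations. At the GI50, growth is halved.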 Activity calls are given as the source filed them. Rule as the data show it: active = GI50 up to about 1.1 µM and inactive = higher. A value given as a limit tells only on which side of the number the result lay.

Consider `C(=N/Nc1ccc(-c2nc3ccccc3[nH]2)cc1)/c1c(-c2ccccc2)[nH]c2ccccc12`, for which the GI50 was 0.267 µM (active) in the experiment with Hs-578T; > 100 µM (inactive) in the experiment with HOP-92; 28.8 µM (inactive) with T47D; 0.0471 µM (active) in the experiment on MDA-MB-435; 0.311 µM (active) with SK-MEL-5; 0.12 µM (active) with SR. In addition, the GI50 was 1.6 µM (inactive) with RXF 393; 0.766 µM (active) in the experiment with TK-10; 0.575 µM (active) in the experiment with ACHN; 0.698 µM (active) in the experiment on OVCAR-8; 0.311 µM (active) in the experiment on PC-3; 3.16 µM (inactive) in the experiment with EKVX. The GI50 is 0.647 µM (active) in the experiment on SF-268, 0.199 µM (active) with SK-MEL-2 and 0.319 µM (active) with HOP-62.
As for `CN(Cc1cc(Cl)c(Cl)cc1NC(=O)CN)[C@H]1CCCC[C@@H]1N1CCCC1`, the GI50 in the experiment with Hs-578T is 24.9 µM (inactive); with HOP-92 it was > 100 µM (inactive); in the experiment on T47D, 38.6 µM (inactive); with MDA-MB-435 it was 15.6 µM (inactive); in the experiment with SNB-19 it was 45.2 µM (inactive); with SK-MEL-5 it was 17.7 µM (inactive). Moreover, the GI50 in the experiment with SR was 21.5 µM (inactive); in the experiment on A549, 38.3 µM (inactive); in the experiment on RXF 393, > 100 µM (inactive); in the experiment with SN12C, 69.3 µM (inactive); in the experiment with UACC-62 it was 17.1 µM (inactive); in the experiment with TK-10, 28.1 µM (inactive). Also, the GI50 with ACHN was > 100 µM (inactive); in the experiment on OVCAR-8, 54.5 µM (inactive); with PC-3, 50.7 µM (inactive); in the experiment on EKVX, 34.9 µM (inactive); with SF-268 it was 68.2 µM (inactive); with SK-MEL-2 it was 16.2 µM (inactive). For the same molecule, in the experiment on HOP-62, the GI50 is 92.7 µM (inactive).
Regarding `O=[N+]([O-])/C(Cl)=C(/C(Cl)=C(Cl)Cl)N1CCCCC1`, the GI50 in the experiment with Hs-578T was 5.06 µM (inactive); in the experiment with HOP-92 it was 16.1 µM (inactive); with T47D it was 11.8 µM (inactive); in the experiment on MDA-MB-435, 8.81 µM (inactive); in the experiment on SNB-19, 24.5 µM (inactive); in the experiment on SK-MEL-5, 6.44 µM (inactive). The GI50 with SR was 3.16 µM (inactive); in the experiment with A549 it was 12.6 µM (inactive); with RXF 393, 7.26 µM (inactive); in the experiment on SN12C, 14.2 µM (inactive); in the experiment on UACC-62 it was 4.21 µM (inactive); with TK-10, 21.4 µM (inactive). Moreover, the GI50 in the experiment with ACHN is 16.1 µM (inactive); in the experiment with OVCAR-8, 4.14 µM (inactive); in the experiment on PC-3, 18.8 µM (inactive); in the experiment with EKVX it was 20.3 µM (inactive); in the experiment on SF-268, 11.9 µM (inactive); in the experiment on SK-MEL-2 it was 25.2 µM (inactive). In addition, the GI50 with HOP-62 is 22.6 µM (inactive).
For `N#CC(c1cc2c(cc1Br)OCO2)N1CCOCC1` (stereo unspecified), the GI50 with Hs-578T is 25.6 µM (inactive); in the experiment with HOP-92 it was > 100 µM (inactive); with T47D, > 100 µM (inactive); with MDA-MB-435, 4.05 µM (inactive); in the experiment with SNB-19 it was 61.9 µM (inactive); in the experiment with SK-MEL-5, 26.1 µM (inactive). In addition, the GI50 with SR was 4.82 µM (inactive); in the experiment with A549 it was > 100 µM (inactive); with RXF 393 it was 19.9 µM (inactive); in the experiment on SN12C, 56.2 µM (inactive); with UACC-62, 21.1 µM (inactive); with TK-10, 90.8 µM (inactive). Besides, the GI50 in the experiment on ACHN is 62.8 µM (inactive); in the experiment with OVCAR-8, > 100 µM (inactive); with PC-3 it was 15.3 µM (inactive); in the experiment on EKVX, 44.3 µM (inactive); with SF-268 it was 73.8 µM (inactive); in the experiment on HOP-62 it was 44 µM (inactive).

The record behind these values is ChEMBL document CHEMBL1201862, “PubChem BioAssay data set” (2004).
